The target of assay [1] is Voltage-gated inwardly rectifying potassium channel KCNH2 (Homo sapiens, UniProt Q12809). Kind of assay: Displacement of [35S]MK499 from human ERG expressed in HEK293 cells. In kind it is cell-based. Conditions: for IC50: read-out: IP.
A short description of assay [2]: Displacement of [3H](E)-N1-(2-methoxybenzyl)-cinnamamidine from human recombinant N-methyl-D-aspartate receptor subunit NR1a/N-methyl D-aspartate receptor subtype 2B expressed in mouse Ltk cells by radioligand binding assay.
For assay [3], the target named is Glutamate receptor ionotropic, NMDA 2B (Homo sapiens, UniProt Q13224). As to the kind of experiment: Antagonistic activity against NR2B receptor expressed in mouse Ltk cells assessed as inhibition of calcium influx by FLIPR assay. The assay is classed as functional, cell-based.
Glutamate receptor ionotropic, NMDA 2B, sequence (Q13224 whole entry): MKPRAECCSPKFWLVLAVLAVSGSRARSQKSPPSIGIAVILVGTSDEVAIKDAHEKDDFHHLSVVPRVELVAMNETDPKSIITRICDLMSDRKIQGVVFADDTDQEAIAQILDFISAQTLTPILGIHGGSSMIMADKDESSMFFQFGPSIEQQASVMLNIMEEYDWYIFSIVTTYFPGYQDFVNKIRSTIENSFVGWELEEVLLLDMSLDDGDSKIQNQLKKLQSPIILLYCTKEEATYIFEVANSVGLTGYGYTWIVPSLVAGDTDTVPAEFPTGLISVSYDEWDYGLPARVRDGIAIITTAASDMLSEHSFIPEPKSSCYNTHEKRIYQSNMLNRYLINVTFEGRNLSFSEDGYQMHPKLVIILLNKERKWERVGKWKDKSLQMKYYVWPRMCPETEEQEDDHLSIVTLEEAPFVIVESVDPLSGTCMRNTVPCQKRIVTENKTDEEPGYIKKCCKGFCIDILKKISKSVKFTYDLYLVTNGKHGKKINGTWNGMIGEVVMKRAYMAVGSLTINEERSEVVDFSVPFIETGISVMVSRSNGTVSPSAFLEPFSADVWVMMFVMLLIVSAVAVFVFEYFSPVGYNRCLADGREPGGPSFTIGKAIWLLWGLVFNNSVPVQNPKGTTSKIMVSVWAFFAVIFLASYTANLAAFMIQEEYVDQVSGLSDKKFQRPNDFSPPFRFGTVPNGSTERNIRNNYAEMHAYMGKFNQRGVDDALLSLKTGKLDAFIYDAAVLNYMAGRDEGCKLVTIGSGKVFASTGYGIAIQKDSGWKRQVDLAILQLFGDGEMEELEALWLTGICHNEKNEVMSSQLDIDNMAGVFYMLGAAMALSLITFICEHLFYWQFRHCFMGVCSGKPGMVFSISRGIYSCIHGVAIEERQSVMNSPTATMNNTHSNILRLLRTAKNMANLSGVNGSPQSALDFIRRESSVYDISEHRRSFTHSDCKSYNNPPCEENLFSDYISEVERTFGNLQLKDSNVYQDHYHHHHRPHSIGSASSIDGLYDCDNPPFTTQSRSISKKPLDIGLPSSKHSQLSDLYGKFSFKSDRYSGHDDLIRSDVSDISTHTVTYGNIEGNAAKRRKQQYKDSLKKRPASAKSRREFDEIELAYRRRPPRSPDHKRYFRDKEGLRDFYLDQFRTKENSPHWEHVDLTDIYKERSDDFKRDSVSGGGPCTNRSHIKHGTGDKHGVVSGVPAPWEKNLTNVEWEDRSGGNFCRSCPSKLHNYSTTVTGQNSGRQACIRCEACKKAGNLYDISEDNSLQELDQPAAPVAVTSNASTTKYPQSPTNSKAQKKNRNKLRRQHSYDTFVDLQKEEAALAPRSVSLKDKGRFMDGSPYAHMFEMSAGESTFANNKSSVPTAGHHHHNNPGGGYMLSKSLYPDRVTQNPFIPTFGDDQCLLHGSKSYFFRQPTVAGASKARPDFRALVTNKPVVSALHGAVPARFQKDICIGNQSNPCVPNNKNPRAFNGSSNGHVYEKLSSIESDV
The nature of assay [4]: Binding affinity to alpha1 adrenergic receptor.
Assay [5] is filed under the species Homo sapiens. Kind of assay: Selectivity ratio of Ki for human NR2B to IP for human ERG.

Bounds are passed on as bounds.

Voltage-gated inwardly rectifying potassium channel KCNH2, sequence (Q12809 whole entry): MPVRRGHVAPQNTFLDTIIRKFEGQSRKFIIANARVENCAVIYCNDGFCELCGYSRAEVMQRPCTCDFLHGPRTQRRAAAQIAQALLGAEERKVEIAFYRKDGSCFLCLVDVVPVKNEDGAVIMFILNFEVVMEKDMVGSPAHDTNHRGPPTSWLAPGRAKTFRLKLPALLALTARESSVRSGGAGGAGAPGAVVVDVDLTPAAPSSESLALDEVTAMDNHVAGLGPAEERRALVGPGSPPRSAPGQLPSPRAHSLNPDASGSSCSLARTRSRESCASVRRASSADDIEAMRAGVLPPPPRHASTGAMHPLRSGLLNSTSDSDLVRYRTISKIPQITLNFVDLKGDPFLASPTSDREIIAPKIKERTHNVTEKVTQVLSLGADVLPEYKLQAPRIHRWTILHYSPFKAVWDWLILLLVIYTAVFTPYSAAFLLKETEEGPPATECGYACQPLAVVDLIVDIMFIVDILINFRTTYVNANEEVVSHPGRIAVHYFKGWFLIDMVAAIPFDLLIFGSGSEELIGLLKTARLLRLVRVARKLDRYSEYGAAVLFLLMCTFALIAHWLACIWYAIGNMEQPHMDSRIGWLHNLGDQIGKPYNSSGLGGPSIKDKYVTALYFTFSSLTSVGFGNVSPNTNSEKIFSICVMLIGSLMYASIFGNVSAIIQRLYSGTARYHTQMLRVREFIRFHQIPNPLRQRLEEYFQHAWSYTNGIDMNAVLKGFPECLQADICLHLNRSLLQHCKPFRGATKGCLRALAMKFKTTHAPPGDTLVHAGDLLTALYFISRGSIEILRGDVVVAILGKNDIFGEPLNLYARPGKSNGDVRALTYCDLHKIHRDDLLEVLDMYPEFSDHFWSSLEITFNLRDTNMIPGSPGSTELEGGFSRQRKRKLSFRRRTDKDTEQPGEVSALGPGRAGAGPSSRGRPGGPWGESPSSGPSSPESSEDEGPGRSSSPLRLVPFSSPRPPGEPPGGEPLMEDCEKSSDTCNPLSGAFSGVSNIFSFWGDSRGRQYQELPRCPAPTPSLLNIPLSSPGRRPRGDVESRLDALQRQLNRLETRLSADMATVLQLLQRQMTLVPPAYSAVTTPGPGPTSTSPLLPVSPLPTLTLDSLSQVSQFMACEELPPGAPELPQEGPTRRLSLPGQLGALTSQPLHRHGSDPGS

Turning to `COC1c2cc(-c3ccccc3)cnc2C=Cc2c(C#N)cccc21` (centres undefined), in assay [1], the IC50 was 660 nM. The inhibition constant Ki (in general, the dissociation constant of the complex between target and ligand, obtained from inhibition or displacement) in assay [2] was 4800 nM.
Taken in the same sequence, the figures for `N#Cc1cccc2c1C=Cc1ncc(-c3cccc(F)c3)cc1C2O` (centres undefined) were 4970 nM and 23 nM.
Taken in the same sequence, the figures for `N#Cc1cccc2c1C=Cc1ncc(-c3ccccc3)cc1C2O` (single isomer, unassigned; (+)) were 10000 nM and 540 nM.
The like results for `N#Cc1cccc2c1C=Cc1ncc(N3CCCCC3)cc1C2O` (racemic) were, in that order, 10000 nM and 43 nM.
Consider `Cc1ccccc1-c1cnc2c(c1)C(O)c1cccc(C#N)c1C=C2` (centres undefined), for which the IC50 in assay [1] was 1350 nM. Further, the Ki in assay [2] stood at 6 nM.
The like results for `Cc1cccc(-c2cnc3c(c2)C(O)c2cccc(C#N)c2C=C3)c1` (centres undefined) were, in that order, 1100 nM and 4 nM.
On to `N#Cc1cccc2c1C(=O)Nc1ncc(-c3ccccc3)cc1C2`, for which the values for the Ki in assay [1] and in assay [2] were 431 nM and 19 nM, respectively.
In the case of `N#Cc1cccc2c1C=Cc1ncc(-c3ccccc3F)cc1C2O` (centres undefined), the IC50 in assay [1] was found to be 4440 nM. The inhibitory constant (Ki) in assay [2] was determined as 16 nM.
Taken in the same sequence, the figures for `N#Cc1cccc2c1C=Cc1ncc(N3CCCCC3)cc1C2O` (single isomer, unassigned; (+)) were 20000 nM and 35000 nM.
The like results for `N#Cc1cccc2c1CCc1ncc(-c3ccccc3)cc1C2` were, in that order, 154 nM and 77 nM.
Turning to `N#Cc1cccc2c1C=Cc1ncc(N3CCCCC3)cc1C2O` (single isomer, unassigned; (-)) [listing 1 of 2 here], the IC50 came out at 27 nM in assay [3] and 20000 nM in assay [1]. The Ki in assay [4] is greater than 21000 nM; in assay [2], 17 nM.
Turning to `N#Cc1cccc2c1C=Cc1ncc(N3CCCCC3)cc1C2O` (single isomer, unassigned; (-)) [listing 2 of 2 here], the Ratio in assay [5] amounted to 1000.
On to `COc1cccc(-c2cnc3c(c2)C(O)c2cccc(C#N)c2C=C3)c1` (centres undefined), for which the IC50 in assay [1] came out at 1530 nM. Further, in assay [2], the Ki was determined as 9 nM.
Taken in the same sequence, the figures for `N#Cc1cccc2c1C=Cc1ncc(-c3ccccc3)cc1C2` were 65 nM and 2 nM.
Taken in the same sequence, the figures for `N#Cc1cccc2c1C=Cc1ncc(-c3ccccc3)cc1C2O` (racemic) were 5100 nM and 2 nM.
Taken in the same sequence, the figures for `CN1CCN(c2cnc3c(c2)C(O)c2cccc(C#N)c2C=C3)CC1` (centres undefined) were 42000 nM and greater than 16000 nM.
For `COc1ccc(-c2cnc3c(c2)C(O)c2cccc(C#N)c2C=C3)cc1` (centres undefined), in assay [1], the IC50 was 1610 nM. Further, in assay [2], the inhibition constant Ki amounted to 8 nM.
The like results for `N#Cc1cccc2c1CCc1ncc(-c3ccccc3)cc1C2O` (centres undefined) were, in that order, 3560 nM and 56 nM.
In the case of `N#Cc1cccc2c1C=Cc1ncc(-c3ccccc3)cc1C2O` (single isomer, unassigned; (-)), the IC50 in assay [3] is 9 nM; in assay [1], 590 nM. The figures for the inhibition constant Ki in assay [4] and in assay [2] were 5000 nM and 1 nM, respectively.
For `N#Cc1cccc2c1C=Cc1ncc(N3CCCC3)cc1C2O` (centres undefined), in assay [1], the IC50 turned out to be 15500 nM. Moreover, the Ki in assay [2] stood at 720 nM.
Consider `N#Cc1cccc2c1C=Cc1ncc(N3CCOCC3)cc1C2O` (centres undefined), for which, in assay [1], the IC50 is 20000 nM. Also, the Ki in assay [2] worked out at 196 nM.
Regarding `CC(=O)OC1c2cc(-c3ccccc3)cnc2C=Cc2c(C#N)cccc21` (centres undefined), the IC50 in assay [1] was determined as 653 nM. The Ki in assay [2] came to 10 nM.
The like results for `Cc1ccc(-c2cnc3c(c2)C(O)c2cccc(C#N)c2C=C3)cc1` (centres undefined) were, in that order, 1700 nM and 10 nM.
The like results for `N#Cc1cccc2c1C=Cc1ncc(-c3ccc(F)cc3)cc1C2O` (centres undefined) were, in that order, 512 nM and 3 nM.
Regarding `CC1CCN(c2cnc3c(c2)C(O)c2cccc(C#N)c2C=C3)CC1` (centres undefined), in assay [1], the IC50 turned out to be 5300 nM. Besides, the Ki in assay [2] was found to be 83 nM.
Taken in the same sequence, the figures for `N#Cc1cccc2c(=O)c3cc(-c4ccccc4)cnc3ccc12` were 882 nM and 1000 nM.
The like results for `COc1ccccc1-c1cnc2c(c1)C(O)c1cccc(C#N)c1C=C2` (centres undefined) were, in that order, 5450 nM and 13 nM.
On to `N#Cc1cccc2c1C=Cc1ncc(N3CCCCCC3)cc1C2O` (centres undefined), for which, in assay [1], the IC50 stood at 3000 nM. The Ki in assay [2] was found to be 428 nM.
